Test results as given in patent publication US12031986B2, “Polypeptide for targeting recognition of immune cells and application thereof” (KEYANGLE LIFE TECHNOLOGY CO., LTD., priority 2019, dated 2024).
“Also recorded” adds a separate entry of the source. No end group written: not given here. K(rhodamine) = not defined here; code X = not defined here

Assays:
[1] = test system: mouse peritoneal macrophages; assay: In vivo fluorescent labeling of macrophages in a mouse abdominal cavity; conditions: for in vivo labeling / recognition of mouse peritoneal macrophages by the fluorescent probe: probe injected into abdominal cavity, cells extracted after 4 hours, fluorescence microscope
Description: Dilute 300 μL of 50 μM AK9 fluorescent probe solution with serum-free DMEM incomplete medium to obtain 1 mL of solution, then inject into the abdominal cavities of 5-8 week old Kunming mice. After 4 hours, inject 5 mL of 1×PBS, and massage. After 10 minutes, sacrifice the mice by cervical vertebra dislocation. Cut the abdominal cavity skin of the mice, pierce the abdominal wall muscle by syringe, and extract the fluid in the abdominal cavity of the mice. Centrifuge the extracted peritoneal fluid at 1000 rpm for 5 min, wash twice with 1×PBS. Double-stain an appropriate number of cells with Alexa Fluor 488 anti-mouse F4/80 antibody (Biolegend). Add the stained cells to a 96-well plate and stain with a nuclear dye Nucblue (Invitrogen). Observe under EVOS FL Auto fluorescence microscope (Life Technologies, 20×, light source 50%, exposure 200 ms, gain 10) after the suspended cells were settled down at the bottom of the plate.
Table 1 lists probes, which contain the polypeptide fragments from the C-terminal fragments of Triokinases/FMN cyclases of different species and were prepared by a similar process as described in Examples 1 and 2, and in vivo imaging results of mouse peritoneal macrophages using these probes.

[2] = test system: mouse peritoneal macrophages; assay: In vitro fluorescent labeling of mouse peritoneal macrophages at different incubation times; assay type: cell-based
Description: Referring to Example 9, using the same treatment process, the macrophages from mouse abdominal cavity were obtained. After culturing for 6 days, the cultured peritoneal cells were labeled with KS24 fluorescent probes for different incubation times. Then the cells were observed under a fluorescence microscope (20×, light source 20%, exposure 200 ms, gain 5).
Nucblue (blue fluorescence) was further used for nuclear staining. In each of FIGS. 14A, 14B, 14C, and 14D, i) is an image labeled with the KS24 fluorescent probe (shown in red fluorescence in the original fluorescence color image), and ii) is an image obtained by nuclear staining with Nucblue (shown in blue fluorescence in the original fluorescence color image), and iii) is a merged image of i) and ii).

PGAVAAAAILRAILEVLQS-Y (PGAVAAAAILRAILEVLQSY; also: reporter type not given here; listed as Homo sapiens) [PK20, Y = reporter or cysteine/lysine + reporter]
in vivo labeling / recognition of mouse peritoneal macrophages by the fluorescent probe [1]: can effectively recognize macrophages in vivo; also recorded: can be labeled

VLRAVLEVLQG-Y (VLRAVLEVLQGY; also: reporter type not given here) [Hx-VVGK12, Y = reporter or cysteine/lysine + reporter]
in vivo labeling / recognition of mouse peritoneal macrophages by the fluorescent probe [1]: can be labeled

AAILRAILEVLQS-Y (AAILRAILEVLQSY; also: C-terminal Y: reporter or Cys/Lys + reporter (rhodamine or FITC), not given here; listed as Homo sapiens) [AK14, Y = reporter or cysteine/lysine + reporter]
in vivo labeling / recognition of mouse peritoneal macrophages by the fluorescent probe [1]: can effectively recognize macrophages in vivo; also recorded: can be labeled

LRAILEVLQS-Y (LRAILEVLQSY; also: reporter type not given here; listed as Homo sapiens) [LK11, Y = reporter or cysteine/lysine + reporter]
in vivo labeling / recognition of mouse peritoneal macrophages by the fluorescent probe [1]: can effectively recognize macrophages in vivo; also recorded: can be labeled

LQPDPSAVAAAAVLRAVLEVLQG-Y (LQPDPSAVAAAAVLRAVLEVLQGY; also: reporter type not given here) [Cx-LK24, Y = reporter or cysteine/lysine + reporter]
in vivo labeling / recognition of mouse peritoneal macrophages by the fluorescent probe [1]: can be labeled

X-TKNMEAGAGRASYISSARLEQPDPGAVAAAAILRAILEVLQS (not fully specified (N-terminus); listed as Homo sapiens) [TS42]
in vivo labeling / recognition of mouse peritoneal macrophages by the fluorescent probe [1]: can effectively recognize macrophages in vivo; also recorded: can be labeled

X-DQPDPGAVAAAAILRTILEVLQSQGV ({code X}-DQPDPGAVAAAAILRTILEVLQSQGV; reading uncertain; also: reporter type not given here, printed as X-DQPDPGAVAAAAILRTILEVLQSQGV; listed as Canis lupus) [d-KV27, X = reporter or cysteine/lysine + reporter]
in vivo labeling / recognition of mouse peritoneal macrophages by the fluorescent probe [1]: can effectively recognize macrophages in vivo; also recorded: can be labeled

ILRAILEVLQS-Y (ILRAILEVLQSY; also: reporter type not given here; listed as Homo sapiens) [IK12, Y = reporter or cysteine/lysine + reporter]
in vivo labeling / recognition of mouse peritoneal macrophages by the fluorescent probe [1]: can effectively recognize macrophages in vivo; also recorded: can be labeled

X-EQPDPGAVAAAAILRAILEVLQS ({code X}-EQPDPGAVAAAAILRAILEVLQS; reading uncertain; also: reporter type not given here, printed as X-EQPDPGAVAAAAILRAILEVLQS; listed as Homo sapiens) [KS24, X = reporter or cysteine/lysine + reporter at N-terminal]
in vivo labeling / recognition of mouse peritoneal macrophages by the fluorescent probe [1]: can effectively recognize macrophages in vivo; also recorded: can be labeled
fluorescence detection with microscope ([2]; incubating only for 10 min): can be even detected
labeled fluorescence of the cells versus incubation time ([2]; incubation 10, 20, 40 and 80 min, cells cultured 6 days): gradually becomes stronger with the incubation time

X-DQPDPGAVAAAAILRAILEVLQSQGA ({code X}-DQPDPGAVAAAAILRAILEVLQSQGA; reading uncertain; also: reporter type not given here, printed as X-DQPDPGAVAAAAILRAILEVLQSQGA; listed as Sus scrofa) [b-KA27, X = reporter or cysteine/lysine + reporter]
in vivo labeling / recognition of mouse peritoneal macrophages by the fluorescent probe [1]: can effectively recognize macrophages in vivo; also recorded: can be labeled

X-EQPDPSAVAAAAILRAILEVLQG (not fully specified (N-terminus); printed as X-EQPDPSAVAAAAILRAILEVLQG; also: N-terminal reporter, not given here) [KESG24, X = reporter or cysteine/lysine + reporter]
in vivo labeling / recognition of mouse peritoneal macrophages by the fluorescent probe [1]: can be labeled

AILEVLQS-Y (AILEVLQS-{K(rhodamine)}; reading uncertain) [AK9, Human Triokinase/FMN cyclase C-terminal fragment; Y is lysine + rhodamine fluorescent labeling group on the lysine side chain]
labeling on the same cells, probe and F4/80 antibody ([1]; in vivo probe labeling, then F4/80 antibody double-stain of extracted peritoneal cells): labeled on the same cells
in vivo labeling / recognition of mouse peritoneal macrophages by the fluorescent probe [1]: can effectively recognize macrophages in vivo

LQPDPGAVAAAAVLRAVLEGLQG-Y (LQPDPGAVAAAAVLRAVLEGLQGY; also: reporter type not given here; listed as Gallus gallus) [LK24, Y = reporter or cysteine/lysine + reporter]
in vivo labeling / recognition of mouse peritoneal macrophages by the fluorescent probe [1]: can effectively recognize macrophages in vivo; also recorded: can also be labeled

AVLEVLQG-Y (AVLEVLQGY; also: reporter type not given here) [Hx-AVGK9, Y = reporter or cysteine/lysine + reporter]
in vivo labeling / recognition of mouse peritoneal macrophages by the fluorescent probe [1]: can be labeled

X-DQPDPGAVAAAAIFRAILEVLQTKAA ({code X}-DQPDPGAVAAAAIFRAILEVLQTKAA; reading uncertain; also: reporter type not given here, printed as X-DQPDPGAVAAAAIFRAILEVLQTKAA; listed as Rattus norvegicus) [r-KA27, X = reporter or cysteine/lysine + reporter]
in vivo labeling / recognition of mouse peritoneal macrophages by the fluorescent probe [1]: can effectively recognize macrophages in vivo; also recorded: can be labeled
